The results in this text go back to paper PMC9914926, “Bioactive Compounds of Underground Valerian Extracts and Their Effect on Inhibiting Metabolic Syndrome-Related Enzymes Activities” (Foods, 2023).

pIC50: −log10 of the molar value. Like-named read-outs stand apart in the source and are kept apart here.

The target in assay [1] is T1, porcine pancreatic α-amylase (Sus scrofa, UniProt P00690).
T1 construct: purchased Sigma-Aldrich (St. Louis, MO, USA); host or cells: porcine pancreas
T1 sequence (P00690 16-511): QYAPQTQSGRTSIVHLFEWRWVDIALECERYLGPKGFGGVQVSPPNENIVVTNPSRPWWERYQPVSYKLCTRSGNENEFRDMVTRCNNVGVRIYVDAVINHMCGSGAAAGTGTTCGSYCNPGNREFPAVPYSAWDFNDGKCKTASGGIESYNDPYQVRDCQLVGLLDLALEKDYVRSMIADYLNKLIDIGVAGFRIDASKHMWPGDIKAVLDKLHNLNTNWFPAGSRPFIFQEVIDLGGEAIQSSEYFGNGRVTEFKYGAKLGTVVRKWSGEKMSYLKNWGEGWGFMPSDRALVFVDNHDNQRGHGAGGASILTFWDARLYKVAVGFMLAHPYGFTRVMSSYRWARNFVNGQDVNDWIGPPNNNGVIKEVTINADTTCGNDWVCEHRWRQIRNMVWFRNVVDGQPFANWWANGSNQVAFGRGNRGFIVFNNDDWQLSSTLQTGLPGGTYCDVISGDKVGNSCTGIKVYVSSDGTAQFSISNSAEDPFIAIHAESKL
In words: α-amylase inhibition assay. It is filed as biochemical. Particulars: for inhibition ability on α-amylase: dosage 0–2.5 mg/mL; for inhibition of α-amylase activity: 0.5–2 mg/mL.

The next assay concerns the target T2, rabbit lung ACE (Oryctolagus cuniculus, UniProt P12822).
T2 construct: purchased Sigma-Aldrich (St. Louis, MO, USA); host or cells: rabbit lung
T2 sequence (P12822 34-1310): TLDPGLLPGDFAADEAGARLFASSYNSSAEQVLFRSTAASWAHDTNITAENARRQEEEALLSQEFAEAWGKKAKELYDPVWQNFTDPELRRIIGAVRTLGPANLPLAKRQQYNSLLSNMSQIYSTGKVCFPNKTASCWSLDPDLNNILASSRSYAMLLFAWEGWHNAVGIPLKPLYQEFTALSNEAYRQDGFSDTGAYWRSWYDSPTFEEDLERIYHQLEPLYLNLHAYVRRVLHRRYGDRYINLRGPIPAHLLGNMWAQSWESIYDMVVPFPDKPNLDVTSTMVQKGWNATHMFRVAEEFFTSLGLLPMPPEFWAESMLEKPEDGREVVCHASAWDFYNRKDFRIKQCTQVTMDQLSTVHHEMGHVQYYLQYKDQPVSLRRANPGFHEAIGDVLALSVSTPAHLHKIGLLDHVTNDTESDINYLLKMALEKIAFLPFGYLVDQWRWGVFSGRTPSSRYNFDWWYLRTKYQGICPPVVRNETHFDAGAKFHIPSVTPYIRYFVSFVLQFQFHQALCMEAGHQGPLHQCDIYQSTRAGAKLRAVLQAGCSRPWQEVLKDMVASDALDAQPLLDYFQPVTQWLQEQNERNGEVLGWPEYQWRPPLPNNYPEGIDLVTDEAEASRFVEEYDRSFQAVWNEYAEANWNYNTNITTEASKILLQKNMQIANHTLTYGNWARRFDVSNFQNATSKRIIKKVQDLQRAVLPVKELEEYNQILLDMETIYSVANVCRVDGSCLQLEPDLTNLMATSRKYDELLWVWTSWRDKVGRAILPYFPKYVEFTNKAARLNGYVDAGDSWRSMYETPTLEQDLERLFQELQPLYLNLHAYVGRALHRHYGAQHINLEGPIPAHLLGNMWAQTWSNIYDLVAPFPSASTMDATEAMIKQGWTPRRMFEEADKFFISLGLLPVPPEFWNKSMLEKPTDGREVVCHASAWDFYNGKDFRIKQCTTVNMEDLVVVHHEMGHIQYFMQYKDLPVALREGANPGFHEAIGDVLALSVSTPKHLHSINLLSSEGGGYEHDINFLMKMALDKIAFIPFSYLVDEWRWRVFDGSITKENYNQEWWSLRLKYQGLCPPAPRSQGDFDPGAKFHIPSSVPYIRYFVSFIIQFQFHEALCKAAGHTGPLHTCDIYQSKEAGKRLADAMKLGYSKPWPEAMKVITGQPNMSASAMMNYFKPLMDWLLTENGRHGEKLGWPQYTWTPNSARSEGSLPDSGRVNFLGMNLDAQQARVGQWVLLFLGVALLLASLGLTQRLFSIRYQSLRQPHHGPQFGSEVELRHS
The assay is described as follows: ACE inhibition assay (hippuric acid by HPLC). The settings on record: for IC50: read-out: IC50, ACE (converted). It is filed as biochemical.

For another assay, the target named is T3, pancreatic lipase (Homo sapiens, UniProt P16233).
T3 sequence (P16233 17-465): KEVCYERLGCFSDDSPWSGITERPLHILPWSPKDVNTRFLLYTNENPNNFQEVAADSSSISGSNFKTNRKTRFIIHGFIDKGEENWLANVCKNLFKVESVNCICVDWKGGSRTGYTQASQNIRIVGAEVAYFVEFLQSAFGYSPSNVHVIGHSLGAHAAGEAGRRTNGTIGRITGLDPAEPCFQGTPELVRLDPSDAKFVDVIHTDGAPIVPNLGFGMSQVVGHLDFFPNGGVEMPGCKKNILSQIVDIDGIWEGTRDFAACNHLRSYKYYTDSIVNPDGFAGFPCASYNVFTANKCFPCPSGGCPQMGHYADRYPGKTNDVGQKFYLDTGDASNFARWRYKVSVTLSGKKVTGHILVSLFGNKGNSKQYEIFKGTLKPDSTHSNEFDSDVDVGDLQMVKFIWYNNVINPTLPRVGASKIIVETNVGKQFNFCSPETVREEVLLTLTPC
In words: lipase inhibition assay. It is filed as biochemical. Particulars: for inhibition of pancreatic lipase activity: 0.5–2 mg/mL.

Another assay has as its target α-glucosidase. In words: α-glucosidase inhibition assay. It is filed as biochemical.
Assay [2] in a line: scavenging ability on DPPH radicals. Particulars: 0–250 μg/mL. On the procedure:
The scavenging ability of each extract on DPPH radicals was determined based on the method by Shimada et al.. Each extract was prepared in methanol at 0–1000 μg extract/mL, and 4 mL was mixed with 1 mL of methanolic solution containing DPPH radicals to a final concentration of 0.2 mM DPPH. After the mixture was shaken vigorously, it was left to stand in the dark for 30 min, and then the absorbance of the mixture was measured at 517 nm against a blank. […] Ascorbic acid, BHA, α-tocopherol, acetoxyvalerenic acid, and valerenic acid were compared. Each analysis was carried out in quadruplicate.

Regarding `O=C(O)c1ccc(O)c(O)c1` [Protocatechuic acid, protocatechuic acid], in assay [1], the “inhibition ability on α-amylase” value is on record as 0–88.03%. Besides, the concentration for half-maximal inhibition (IC50) – broadly, the concentration at which inhibition is half-maximal – on rabbit lung ACE is 16 mM. Also, the negative logarithm of the IC50 (pIC50) (usually the negative decadic logarithm of the IC50, by convention in mol/L) on pancreatic lipase was 2.36. Besides, at α-glucosidase, the “IC50, α-Glucosidase” value came out at 3.721 ± 0.042B mg/mL.
For `CC(=O)O[C@@H]1CC(C)=C2[C@H]1[C@H](C)CC[C@H]2/C=C(\C)C(=O)O` [Acetoxyvalerenic acid, acetoxyvalerenic acid], the “inhibition of α-amylase activity” value in assay [1] is “could not effectively inhibit”. Also, the “inhibitory ability on ACE” value against rabbit lung ACE (2 mg/mL) stood at 15%. For the same compound, on pancreatic lipase, the “inhibition of pancreatic lipase activity” value is listed as “Neither”. Moreover, the “IC50, α-Glucosidase” value against α-glucosidase was 1.827 ± 0.005D mg/mL. Besides, the “ability to scavenge DPPH radicals” value in assay [2] was “not able to scavenge the DPPH radicals”.
For `O=C(O)/C=C/c1ccc(O)c(O)c1` [Caffeic acid, caffeic acid], the 50% inhibitory concentration (IC50) on rabbit lung ACE was 0.522 mM. The compound also had a negative logarithm of the IC50 (pIC50) on pancreatic lipase of 2.39. Moreover, the “IC50, α-Glucosidase” value against α-glucosidase is listed as 1.289 ± 0.024E mg/mL.
Consider `O=C(O)c1cc(O)c(O)c(O)c1` [Gallic acid, gallic acid], for which the pIC50 was 2.13 in assay [1], 1.91 on rabbit lung ACE and 2.44 against pancreatic lipase. The “inhibition ability on α-amylase” value in assay [1] is recorded as 0–95.22%. Further, the “IC50, α-Glucosidase” value against α-glucosidase is 2.164 ± 0.026C mg/mL.
With `O=C(/C=C/c1ccc(O)c(O)c1)O[C@@H]1C[C@](O)(C(=O)O)C[C@@H](O)[C@H]1O` [Chlorogenic acid], the “inhibition ability on α-amylase” value in assay [1] is recorded as 0–89.52%. Also, the IC50 in assay [1] (read-out: IC50, α-Amylase (converted)) was 5.06 mM; on rabbit lung ACE, 13.6 mM. Moreover, the pIC50 against pancreatic lipase is 2.50.
For the compound `CC1=C2[C@H](/C=C(\C)C(=O)O)CC[C@@H](C)[C@H]2CC1` [Valerenic acid], the “inhibition of α-amylase activity” value in assay [1] is on record as “could not effectively inhibit”. In addition, the “IC50, ACE” value at rabbit lung ACE is recorded as 0.225 ± 0.023D mg/mL. Moreover, at pancreatic lipase, the “inhibition of pancreatic lipase activity” value is “Neither”. For the same compound, at α-glucosidase, the “IC50, α-Glucosidase” value came out at 0.617 ± 0.028F mg/mL. The “ability to scavenge DPPH radicals” value in assay [2] was “not able to scavenge the DPPH radicals”.
On to `C[C@H]1O[C@H](O[C@H]2[C@H](O)[C@@H](O)[C@@H](O[C@H]3[C@H](O)[C@@H](O)C(O)O[C@@H]3CO)O[C@@H]2CO)[C@H](O)[C@@H](O)[C@@H]1N[C@H]1C=C(CO)[C@@H](O)[C@H](O)[C@H]1O` (stereo partly drawn) [Acarbose, acarbose, reference compound], for which, in assay [1] (5–25 μg/mL), the “inhibitory ability of α-amylase” value is reported as 47–88%.
